26 molecules from patent publication US9708308B2, “Factor IXa inhibitors” (Merck Sharp & Dohme Corp., priority 2012, dated 2017) can be followed below.

By IC50 is commonly meant the concentration needed to halve the response being measured.

Factor IXa, sequence (P00740 227-461 limits assumed): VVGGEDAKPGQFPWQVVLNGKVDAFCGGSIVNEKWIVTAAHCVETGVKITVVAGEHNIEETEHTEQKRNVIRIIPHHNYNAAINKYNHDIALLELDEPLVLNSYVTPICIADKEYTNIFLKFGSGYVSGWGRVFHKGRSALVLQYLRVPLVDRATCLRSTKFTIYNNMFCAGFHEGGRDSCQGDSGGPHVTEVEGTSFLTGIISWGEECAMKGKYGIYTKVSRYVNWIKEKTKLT
Factor IXa, sequence (P00740 47-191 partner limits assumed): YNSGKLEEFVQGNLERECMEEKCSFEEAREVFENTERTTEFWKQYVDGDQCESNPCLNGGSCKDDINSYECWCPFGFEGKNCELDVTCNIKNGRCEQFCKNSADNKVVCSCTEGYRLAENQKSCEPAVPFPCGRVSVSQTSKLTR

This assay addresses Factor IXa (Homo sapiens, UniProt P00740). In words: Determination of inhibitory activity against Factor IXa (cleavage of fluorescent peptide substrate). The settings on record: cleavage of fluorescent peptide CH3SO2-D-CHG-Gly-Arg-AFC, release of AFC; read-out: FIXa IC50. Format: biochemical. The text has this:
• (R)—N-(3-aminobenzo[d]isoxazol-6-yl)-2-hydroxy-2-((R)-4-(1-(6-methoxypyridazin-4-yl)-1H-pyrazol-3-yl)-6,6-dimethyl-3-oxomorpholin-2-yl)acetamide. Determination of Inhibitory Activity Against Factor IXa
Formation of a clot to stem bleeding at a site of blood vessel injury involves the coordinated activity of a group of plasma proteins that initiate and propagate fibrin formation and subsequently protect fibrin from premature degradation. Factor IX is a key component of the plasma system that forms a fibrin clot at a site of vascular injury. The activity of Factor IXa is measured by monitoring the cleavage of the fluorescent peptide, CH3SO2-D-CHG-Gly-Arg-AFC.AcOH (“CHG” is cyclohexyl-glycine and “AFC” is trifluoro aminomethyl coumarin). Factor IXa cleaves the amide bond between Arg and AFC, thereby releasing the AFC fluorophore. The free AFC can be detected with a fluorescence detector at an excitation wavelength of 405 nm and emission wavelength of 510 nm.
For `COc1cc(-n2ccc(N3CCO[C@H]([C@@](C)(O)C(=O)Nc4ccc5c(N)noc5c4)C3=O)n2)ccn1` [Example 1, (2R)—N-(3-Amino-1,2-benzoxazol-6-yl)-2-hydroxy-2-[(2R)-4-[1-(2-methoxy-4-pyridyl)pyrazol-3-yl]-3-oxo-morpholin-2-yl]propanamide], the IC50 was 160 nM.
The result for `Cc1cc(N2CCO[C@H]([C@@](C)(O)C(=O)Nc3ccc4c(N)noc4c3)C2=O)nn1-c1cnnc(C#N)c1` [Example 3] reads 68.4 nM.
Under `CCOc1cc(-n2ccc(N3CCO[C@H]([C@@](C)(O)C(=O)Nc4ccc5c(N)noc5c4)C3=O)n2)cnn1` [Example 4] stands 23.2 nM; under `C[C@](O)(C(=O)Nc1ccc2c(N)noc2c1)[C@H]1OCCN(c2ccn(-c3cnnc(C(N)=O)c3)n2)C1=O` [Example 5, 5-(3-((R)-2-((R)-1-((3-Aminobenzo[d]isoxazol-6-yl)amino)-2-hydroxy-1-oxopropan-2-yl)-3-oxomorpholino)-1H-pyrazol-1-yl)pyridazine-3-carboxamide], 20.2 nM.
Regarding `C[C@](O)(C(=O)Nc1ccc2c(N)noc2c1)[C@H]1OCCN(c2ccn(-c3cnnc(OC(CO)CCl)c3)n2)C1=O` (stereo partly drawn) [Example 6, (2R)—N-(3-Aminobenzo[d]isoxazol-6-yl)-2-((2R)-4-(1-(6-((1-chloro-3-hydroxypropan-2-yl)oxy)pyridazin-4-yl)-1H-pyrazol-3-yl)-3-oxomorpholin-2-yl)-2-hydroxypropanamide], the IC50 came to 975 nM.
Under `C[C@](O)(C(=O)Nc1ccc2c(N)noc2c1)[C@H]1OCCN(c2ccn(-c3ccc(=O)n(C(F)F)c3)n2)C1=O` [Example 7, (R)—N-(3-Aminobenzo[d]isoxazol-6-yl)-2-((R)-4-(1-(1-(difluoromethyl)-6-oxo-1,6-dihydropyridin-3-yl)-1H-pyrazol-3-yl)-3-oxomorpholin-2-yl)-2-hydroxypropanamide] stands 18.1 nM.
With `C[C@](O)(C(=O)Nc1ccc2c(N)noc2c1)[C@H]1OCCN(c2ccn(-c3ccc(F)cc3)n2)C1=O` [Example 13, (R)—N-(3-aminobenzo[d]isoxazol-6-yl)-2-((R)-4-(1-(4-fluorophenyl)-1H-pyrazol-3-yl)-3-oxomorpholin-2-yl)-2-hydroxypropanamide], the IC50 is 678 nM.
Under `C[C@](O)(C(=O)Nc1ccc2c(N)noc2c1)[C@H]1OCCN(c2ccn(-c3ccc(S(C)(=O)=O)cc3)n2)C1=O` [Example 14, (R)—N-(3-aminobenzo[d]isoxazol-6-yl)-2-hydroxy-2-((R)-4-(1-(4-(methylsulfonyl)phenyl)-1H-pyrazol-3-yl)-3-oxomorpholin-2-yl)propanamide] stands 13.2 nM; under `C[C@](O)(C(=O)Nc1ccc2c(N)noc2c1)[C@H]1OCCN(c2ccn(-c3ccc(C(=O)O)cc3)n2)C1=O` [Example 15, 4-(3-((R)-2-((R)-1-((3-aminobenzo[d]isoxazol-6-yl)amino)-2-hydroxy-1-oxopropan-2-yl)-3-oxomorpholino)-1H-pyrazol-1-yl)benzoic acid], 289 nM.
Under `C[C@](O)(C(=O)Nc1ccc2c(N)noc2c1)[C@H]1OCCN(c2ccn(-c3ccc(C#N)c(Cl)c3)n2)C1=O` [Example 16, (R)—N-(3-aminobenzo[d]isoxazol-6-yl)-2-((R)-4-(1-(3-chloro-4-cyanophenyl)-1H-pyrazol-3-yl)-3-oxomorpholin-2-yl)-2-hydroxypropanamide] stands 137 nM; under `C[C@](O)(C(=O)Nc1ccc2c(N)noc2c1)[C@H]1OCCN(c2nn(-c3ccc(F)cc3)cc2F)C1=O` [Example 17, (R)—N-(3-aminobenzo[d]isoxazol-6-yl)-2-((R)-4-(4-fluoro-1-(4-fluorophenyl)-1H-pyrazol-3-yl)-3-oxomorpholin-2-yl)-2-hydroxypropanamide], 548 nM; under `Cc1cc(-n2ccc(N3CCO[C@H]([C@@](C)(O)C(=O)Nc4ccc5c(N)noc5c4)C3=O)n2)ccn1` [Example 19, (R)—N-(3-aminobenzo[d]isoxazol-6-yl)-2-hydroxy-2-((R)-4-(1-(2-methylpyridin-4-yl)-1H-pyrazol-3-yl)-3-oxomorpholin-2-yl)propanamide], 71.9 nM.
Under `C[C@](O)(C(=O)Nc1ccc2c(N)noc2c1)[C@H]1OCCN(c2ccn(-c3ccnc(C#N)c3)n2)C1=O` [Example 21, (R)—N-(3-aminobenzo[d]isoxazol-6-yl)-2-((R)-4-(1-(2-cyanopyridin-4-yl)-1H-pyrazol-3-yl)-3-oxomorpholin-2-yl)-2-hydroxypropanamide] stands 16 nM; under `C[C@](O)(C(=O)Nc1ccc2c(N)noc2c1)[C@H]1OCCN(c2ccn(-c3ccnc(C(F)(F)F)c3)n2)C1=O` [Example 22, (R)—N-(3-aminobenzo[d]isoxazol-6-yl)-2-hydroxy-2-((R)-3-oxo-4-(1-(2-(trifluoromethyl)pyridin-4-yl)-1H-pyrazol-3-yl)morpholin-2-yl)propanamide], 36.9 nM.
With `CCOc1cc(-n2ccc(N3CCO[C@H]([C@@](C)(O)C(=O)Nc4ccc5c(N)noc5c4)C3=O)n2)ccn1` [Example 23, (R)—N-(3-aminobenzo[d]isoxazol-6-yl)-2-((R)-4-(1-(2-ethoxypyridin-4-yl)-1H-pyrazol-3-yl)-3-oxomorpholin-2-yl)-2-hydroxypropanamide], the IC50 amounted to 113 nM.
In the case of `CC(C)Oc1cc(-n2ccc(N3CCO[C@H]([C@@](C)(O)C(=O)Nc4ccc5c(N)noc5c4)C3=O)n2)ccn1` [Example 24, (R)—N-(3-aminobenzo[d]isoxazol-6-yl)-2-hydroxy-2-((R)-4-(1-(2-isopropoxypyridin-4-yl)-1H-pyrazol-3-yl)-3-oxomorpholin-2-yl)propanamide], the IC50 came out at 387 nM.
Under `CN(C)c1cc(-n2ccc(N3CCO[C@H]([C@@](C)(O)C(=O)Nc4ccc5c(N)noc5c4)C3=O)n2)ccn1` [Example 25, (R)—N-(3-aminobenzo[d]isoxazol-6-yl)-2-((R)-4-(1-(2-(dimethylamino)pyridin-4-yl)-1H-pyrazol-3-yl)-3-oxomorpholin-2-yl)-2-hydroxypropanamide] stands 95.4 nM; under `COc1cc(-n2ccc(N3CCO[C@H]([C@@](C)(O)C(=O)Nc4ccc5c(N)noc5c4)C3=O)n2)c(Br)cn1` [Example 26, (R)—N-(3-aminobenzo[d]isoxazol-6-yl)-2-((R)-4-(1-(5-bromo-2-methoxypyridin-4-yl)-1H-pyrazol-3-yl)-3-oxomorpholin-2-yl)-2-hydroxypropanamide], 346 nM.
With `COc1cc(-n2ccc(N3CCO[C@H]([C@@](C)(O)C(=O)Nc4ccc5c(N)noc5c4)C3=O)n2)c(F)cn1` [Example 27, (R)—N-(3-aminobenzo[d]isoxazol-6-yl)-2-((R)-4-(1-(5-fluoro-2-methoxypyridin-4-yl)-1H-pyrazol-3-yl)-3-oxomorpholin-2-yl)-2-hydroxypropanamide], the IC50 was 148 nM.
Under `COc1cc(-n2ccc(N3CCO[C@H]([C@@](C)(O)C(=O)Nc4ccc5c(N)noc5c4)C3=O)n2)c(Cl)cn1` [Example 28, (R)—N-(3-aminobenzo[d]isoxazol-6-yl)-2-((R)-4-(1-(5-chloro-2-methoxypyridin-4-yl)-1H-pyrazol-3-yl)-3-oxomorpholin-2-yl)-2-hydroxypropanamide] stands 445 nM; under `COc1cc(-n2ccc(N3CCO[C@H]([C@@](C)(O)C(=O)Nc4ccc5c(N)noc5c4)C3=O)n2)c(C(F)(F)F)cn1` [Example 29, (R)—N-(3-aminobenzo[d]isoxazol-6-yl)-2-hydroxy-2-((R)-4-(1-(2-methoxy-5-(trifluoromethyl)pyridin-4-yl)-1H-pyrazol-3-yl)-3-oxomorpholin-2-yl)propanamide], 106 nM; under `C[C@](O)(C(=O)Nc1ccc2c(N)noc2c1)[C@H]1OCCN(c2nn(-c3ccnc(C(F)(F)F)c3)cc2F)C1=O` [Example 30, (R)—N-(3-aminobenzo[d]isoxazol-6-yl)-2-((R)-4-(4-fluoro-1-(2-(trifluoromethyl)pyridin-4-yl)-1H-pyrazol-3-yl)-3-oxomorpholin-2-yl)-2-hydroxypropanamide], 36.2 nM.
Under `C[C@](O)(C(=O)Nc1ccc2c(N)noc2c1)[C@H]1OCCN(c2nn(-c3ccnc(C#N)c3)cc2F)C1=O` [Example 31, (R)—N-(3-aminobenzo[d]isoxazol-6-yl)-2-((R)-4-(1-(2-cyanopyridin-4-yl)-4-fluoro-1H-pyrazol-3-yl)-3-oxomorpholin-2-yl)-2-hydroxypropanamide] stands 31 nM.
The result for `COc1cc(-n2cc(Cl)c(N3CCO[C@H]([C@@](C)(O)C(=O)Nc4ccc5c(N)noc5c4)C3=O)n2)ccn1` [Example 33, (R)—N-(3-aminobenzo[d]isoxazol-6-yl)-2-((R)-4-(4-chloro-1-(2-methoxypyridin-4-yl)-1H-pyrazol-3-yl)-3-oxomorpholin-2-yl)-2-hydroxypropanamide] reads 817 nM; that for `C[C@](O)(C(=O)Nc1ccc2c(N)noc2c1)[C@H]1OCCN(c2nn(-c3ccnc(C#N)c3)cc2Cl)C1=O` [Example 34, (R)—N-(3-aminobenzo[d]isoxazol-6-yl)-2-((R)-4-(4-chloro-1-(2-cyanopyridin-4-yl)-1H-pyrazol-3-yl)-3-oxomorpholin-2-yl)-2-hydroxypropanamide], 570 nM; that for `COc1cc(-n2cc(C)c(N3CCO[C@H]([C@@](C)(O)C(=O)Nc4ccc5c(N)noc5c4)C3=O)n2)ccn1` [Example 35, (R)—N-(3-aminobenzo[d]isoxazol-6-yl)-2-hydroxy-2-((R)-4-(1-(2-methoxypyridin-4-yl)-4-methyl-1H-pyrazol-3-yl)-3-oxomorpholin-2-yl)propanamide], 694 nM.
